Test results published in patent US20250388571A1, “AMP-ACTIVATED PROTEIN KINASE MODULATOR COMPOUNDS AND USES THEREOF” (Biolexis Therapeutics, Inc., priority 2024, published 2025).
“Also recorded” adds a separate entry of the source. Like-named read-outs stand apart in the source and are kept apart here.

What was measured:
[1] = PK oral bioavailability experiment, mouse; format: in vivo, male Swiss Albino Mouse; details: 1 mg/kg intravenous, 5 mg/kg oral
Experimental: A total of 24 male Swiss albino mouse were allotted for the study, Animals were allotted to 2 groups containing 12 mice/group, on day of dosing all the animals were fasted 3 hours before dosing. The test formulation was administered as a single dose by intravenous and oral route via tail vein and oral gavage needle at a dose of 1 and 5 mg/kg with a dose volume of 5 and 10 mL/kg, respectively.
Approximately 0.1 mL of blood sample from each animal was collected via retro orbital at predetermined time points (3 animals/Timepoint) in pre-labeled Eppendorf tubes containing anticoagulant. After blood collection at 0.5 h and 1 h, after collection of CSF, whole blood was withdrawn, and brain tissue was collected as a terminal sampling. Blood samples were centrifuged at 10000 rpm for 5 min under refrigeration (2-4° C.) within 0.5 h to obtain plasma. The separated plasma samples were collected in pre labeled tubes within 60 min of separation and stored at −20° C. up to 24 h. Post 24 h sample collection, all plasma samples were transferred to deep freezer custodian to store below or at −70° C. until shipment.
Similarly, CSF and Brain were collected at 0.5 h and 1h time point by scarification. Tissues were blotted and dried and then transferred to 15 mL falcon tubes. Initially all tissue samples were stored at −20±3° C. Later all brain tissue samples were homogenized with PBS at 1:4 ratio and the brain homogenate were transferred to deep freezer (−70±10° C.) and stored.
The PK parameters were evaluated using Phoenix WinNonlin® Ent-Version 8.3 by non-compartmental analysis.

high fat diet mice = details: for % Body (percentage change in body weight): up to day 36
[2] = system: human cardiomyocyte cells (HCM); assay: Glucose uptake assay, human cardiomyocyte cells; format: cell-based; details: for AMPK activation activity (glucose uptake assay): 10 doses 100 μM to 0.005 μM
Experimental: FIGS. 17-19 show results for glucose update assays in human cardiomyocyte cells (“HCM”-healthy donor) (Promocell, cat. no. C-12810) when treated with compound I-11 (FIG. 17), compound I-7 (FIG. 18), and PF-06409577 (FIG. 19). After recovered HCM cells for 4 days, cells were starved for 3 hours in high glucose DMEM without FBS, treated with the components noted above in DMEM without FBS/glucose for 1 hour, and glucose uptake was detected using a glucose uptake kit (Promega). […] The bars show (from left to right) concentrations of 100 μM, 33 μM, 11 μM, 3.7 μM, 1.23 μM, 0.41 μM, 0.14 μM, 0.045 μM, 0.015 μM, 0.005 μM, 0 μM, and insulin.
FIGS. 20-22 show results for glucose update assays in human cardiomyocyte cells (“HCM”-diabetic donor) (Promocell, cat. no. C-12810) when treated with compound I-11 (FIG. 20), compound I-7 (FIG. 21), and PF-06409577 (FIG. 22). After recovered HCM cells for 4 days, cells were starved for 3 hours in high glucose DMEM without FBS, treated with the components noted above in DMEM without FBS/glucose for 1 hour, and glucose uptake was detected using a glucose uptake kit (Promega). […] The bars show (from left to right) concentrations of 100 μM, 33 μM, 11 μM, 3.7 μM, 1.23 μM, 0.41 μM, 0.14 μM, 0.045 μM, 0.015 μM, 0.005 μM, 0 μM, and insulin.
Human skeletal myoblasts were obtained (Thermofisher; BYU) and cultured in DMEM/F12 medium with 10% FBS. For differentiation, 2% horse serum low glucose DMEM medium was employed for 72 hours. Human cardiomyocytes cells (HCM cells; Promocell) were cultured in myocyte growth medium (Promocell). Human preadipocyte HWP-c cells (Promocell) were obtained from upper arm of diabetic II donor. Human preadipocyte HWP-c cells (Promocell) were obtained from abdomen of diabetic II donor. For differentiating human preadipocytes, cells were cultured in preadipocyte growth medium to total confluency stage. The growth medium was replaced with preadipocyte differentiation medium for 72 hours, then changed to PromoCell adipocyte nutrition medium to complete the differentiation process. THLE-2 cells were cultured in BEGM from Lonza/Clonetics Corporation, Walkersville, MD 21793 (BEGM Bullet Kit; CC3170). HepG2, L6 and C2Cl2 cells were cultured in EMEM medium.
After differentiation myoblasts, preadipocyte cells were starved by removing the medium and adding 100 μL DMEM without serum. The medium was then replaced with 100 μL DMEM±1 μM insulin at indicated concentration of representative compounds without serum or glucose. The cells were then incubated for 1 hour at 37° C. in 5% CO2. The cells were then removed from the medium and 50 μL of 0.1 mM 2DG in PBS was added. Cells were incubated for 30 minutes at 25° C. 25 μL of Stop Buffer was added and samples were mixed. 25 μL of Neutralization Buffer was then added and mixed. 100 μL of 2DG6P Detection Reagent was then added and mixed. Samples were then incubated for 1 hour at 25° C. Luminescence was then recorded with 0.3-1 second integration on a luminometer.

For `O=c1[nH]c(-c2c[nH]c3cc(F)c(-c4ccc(C5(O)CCC5)cc4)c(F)c23)no1` [Compound I-11, 3-(4,6-difluoro-5-(4-(1-hydroxycyclobutyl)phenyl)-1H-indol-3-yl)-1,2,4-oxadiazol-5(4H)-one], the clearance [1] was “low clearance”, the elimination [1] was “biphasic elimination” and the systemic exposure [1] was “moderate systemic exposure”. For the same compound, the “% fat mass” value (high fat diet mice; 30 mg/kg p.o. QD, Day 14) was 53.75 ± 0.88%, the “area (cm^2; DEXA scan)” value (high fat diet mice; 30 mg/kg p.o. QD, Day 14) was 13.26 ± 0.24 cm^2 and the “bone mineral content (BMC)” value (high fat diet mice; 30 mg/kg p.o. QD, Day 14) was 1.04 ± 0.02. For the same compound, the “bone mineral density (BMD)” value (high fat diet mice; 30 mg/kg p.o. QD, Day 14) was 0.08 ± 0.00, the “fat mass (gm)” value (high fat diet mice; 30 mg/kg p.o. QD, Day 14) was 27.97 ± 0.67 gm and the “lean+bone mineral content (BMC-gm)” value (high fat diet mice; 30 mg/kg p.o. QD, Day 14) was 24.11 ± 0.71 gm. The “total mass (gm)” value (high fat diet mice; 30 mg/kg p.o. QD, Day 14) was 52.05 ± 1.04 gm, the “% fat mass” value (high fat diet mice; 30 mg/kg p.o. QD, Day −3) was 46.39 ± 0.83% and the “area (cm^2; DEXA scan)” value (high fat diet mice; 30 mg/kg p.o. QD, Day −3) was 12.61 ± 0.23 cm^2. For the same compound, the “bone mineral content (BMC)” value (high fat diet mice; 30 mg/kg p.o. QD, Day −3) was 1.01 ± 0.01, the “bone mineral density (BMD)” value (high fat diet mice; 30 mg/kg p.o. QD, Day −3) was 0.08 ± 0.00 and the “fat mass (gm)” value (high fat diet mice; 30 mg/kg p.o. QD, Day −3) was 23.20 ± 0.60 gm. For the same compound, the “lean+bone mineral content (BMC-gm)” value (high fat diet mice; 30 mg/kg p.o. QD, Day −3) was 26.78 ± 0.50 gm, the “total mass (gm)” value (high fat diet mice; 30 mg/kg p.o. QD, Day −3) was 49.96 ± 0.75 gm and the “% Body (percentage change in body weight)” value (high fat diet mice; 30 mg/kg p.o. QD) was 1.40 ± 0.21%. For the same compound, the “% fat mass” value (high fat diet mice; 50 mg/kg p.o. QD, Day 14) was 50.05 ± 1.02%, the “area (cm^2; DEXA scan)” value (high fat diet mice; 50 mg/kg p.o. QD, Day 14) was 12.93 ± 0.23 cm^2 and the “bone mineral content (BMC)” value (high fat diet mice; 50 mg/kg p.o. QD, Day 14) was 1.04 ± 0.02. The “bone mineral density (BMD)” value (high fat diet mice; 50 mg/kg p.o. QD, Day 14) was 0.08 ± 0.00, the “fat mass (gm)” value (high fat diet mice; 50 mg/kg p.o. QD, Day 14) was 25.95 ± 0.84 gm and the “lean+bone mineral content (BMC-gm)” value (high fat diet mice; 50 mg/kg p.o. QD, Day 14) was 25.83 ± 0.49 gm. The “total mass (gm)” value (high fat diet mice; 50 mg/kg p.o. QD, Day 14) was 51.78 ± 0.85 gm, the “% fat mass” value (high fat diet mice; 50 mg/kg p.o. QD, Day −3) was 46.37 ± 2.15% and the “area (cm^2; DEXA scan)” value (high fat diet mice; 50 mg/kg p.o. QD, Day −3) was 12.56 ± 0.30 cm^2. The “bone mineral content (BMC)” value (high fat diet mice; 50 mg/kg p.o. QD, Day −3) was 1.01 ± 0.02, the “bone mineral density (BMD)” value (high fat diet mice; 50 mg/kg p.o. QD, Day −3) was 0.08 ± 0.00 and the “fat mass (gm)” value (high fat diet mice; 50 mg/kg p.o. QD, Day −3) was 23.44 ± 1.29 gm. For the same compound, the “lean+bone mineral content (BMC-gm)” value (high fat diet mice; 50 mg/kg p.o. QD, Day −3) was 26.97 ± 1.03 gm, the “total mass (gm)” value (high fat diet mice; 50 mg/kg p.o. QD, Day −3) was 50.40 ± 0.80 gm and the “% Body (percentage change in body weight)” value (high fat diet mice; 50 mg/kg p.o. QD) was −0.34 ± 0.73%. The “clinical signs, morbidity, mortality” value (high fat diet mice; 30 and 50 mg/kg p.o. QD for 36 days) was “no observations of clinical signs or morbidity, and no mortality”, the “AMPK activation activity (glucose uptake assay)” value ([2]; diabetic donor) was “did not show AMPK activation activity” and the glucose uptake ([2]; donor not stated) was “did not induce glucose uptake in dose-dependent manner; also recorded: did not activate glucose uptake”. The “AMPK activation activity (glucose uptake assay)” value ([2]; healthy donor) was “did not show AMPK activation activity”.
